{
  "source": "patent US20190210973A1",
  "about": "“COMPOUNDS AND METHODS FOR TREATMENT OF CYSTIC FIBROSIS” (The Curators of the University of Missouri, priority 2018, published 2019)",
  "key": {"[1]": {"molecular_target": "T1, G551D-CFTR (Homo sapiens, UniProt P13569, G551D)", "T1 construct": "The cDNA constructs of CFTR (G551D and delF508) were co-transfected with peGFP-C3; expressed in transfected cells; host or cells: CHO cells (ATCC), transient co-transfection with pEGFP-C3 (GFP as a separate marker, not fused)", "T1 sequence (P13569 whole entry G551D, the tested form may be a part)": "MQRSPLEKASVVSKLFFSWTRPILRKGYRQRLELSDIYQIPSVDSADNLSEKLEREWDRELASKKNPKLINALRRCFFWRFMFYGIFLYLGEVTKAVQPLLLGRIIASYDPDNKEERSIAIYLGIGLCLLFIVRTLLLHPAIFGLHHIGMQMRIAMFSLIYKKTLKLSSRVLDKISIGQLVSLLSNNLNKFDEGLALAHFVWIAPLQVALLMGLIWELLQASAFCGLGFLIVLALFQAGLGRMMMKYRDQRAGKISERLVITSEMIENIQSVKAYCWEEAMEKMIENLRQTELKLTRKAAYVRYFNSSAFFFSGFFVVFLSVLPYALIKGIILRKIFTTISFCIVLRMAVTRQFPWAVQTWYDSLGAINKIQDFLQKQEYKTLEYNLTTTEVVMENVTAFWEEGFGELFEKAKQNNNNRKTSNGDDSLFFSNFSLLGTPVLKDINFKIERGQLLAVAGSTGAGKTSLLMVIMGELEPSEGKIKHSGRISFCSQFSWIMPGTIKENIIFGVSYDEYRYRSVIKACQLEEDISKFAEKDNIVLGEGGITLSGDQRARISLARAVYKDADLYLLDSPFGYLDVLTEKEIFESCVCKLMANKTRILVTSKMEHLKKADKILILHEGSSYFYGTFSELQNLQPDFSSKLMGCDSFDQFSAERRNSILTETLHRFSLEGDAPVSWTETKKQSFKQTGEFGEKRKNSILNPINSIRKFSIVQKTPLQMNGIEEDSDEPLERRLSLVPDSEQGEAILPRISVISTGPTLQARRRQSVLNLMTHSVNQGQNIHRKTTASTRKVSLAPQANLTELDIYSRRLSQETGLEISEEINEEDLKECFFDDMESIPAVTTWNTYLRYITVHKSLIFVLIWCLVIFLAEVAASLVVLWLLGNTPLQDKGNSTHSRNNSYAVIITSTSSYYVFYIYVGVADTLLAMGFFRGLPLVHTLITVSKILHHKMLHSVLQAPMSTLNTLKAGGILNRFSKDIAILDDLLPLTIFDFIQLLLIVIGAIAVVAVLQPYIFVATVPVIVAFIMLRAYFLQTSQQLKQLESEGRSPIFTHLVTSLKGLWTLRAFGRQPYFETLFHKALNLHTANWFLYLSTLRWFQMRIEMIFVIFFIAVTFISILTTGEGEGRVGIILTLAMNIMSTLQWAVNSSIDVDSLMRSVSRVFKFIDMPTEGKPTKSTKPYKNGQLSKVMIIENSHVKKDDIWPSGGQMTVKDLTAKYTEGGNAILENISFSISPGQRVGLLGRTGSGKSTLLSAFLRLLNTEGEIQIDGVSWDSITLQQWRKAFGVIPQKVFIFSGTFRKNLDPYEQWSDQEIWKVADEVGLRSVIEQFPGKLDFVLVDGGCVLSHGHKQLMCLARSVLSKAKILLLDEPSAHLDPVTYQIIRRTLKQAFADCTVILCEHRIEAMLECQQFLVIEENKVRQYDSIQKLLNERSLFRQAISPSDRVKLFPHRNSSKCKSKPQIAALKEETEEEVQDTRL", "conditions": "cited from earlier work"}, "[2]": {"molecular_target": "delF508-CFTR (Homo sapiens, UniProt P13569, DEL508-508)", "sequence (P13569 with tags, fused parts or gaps DEL508-508)": "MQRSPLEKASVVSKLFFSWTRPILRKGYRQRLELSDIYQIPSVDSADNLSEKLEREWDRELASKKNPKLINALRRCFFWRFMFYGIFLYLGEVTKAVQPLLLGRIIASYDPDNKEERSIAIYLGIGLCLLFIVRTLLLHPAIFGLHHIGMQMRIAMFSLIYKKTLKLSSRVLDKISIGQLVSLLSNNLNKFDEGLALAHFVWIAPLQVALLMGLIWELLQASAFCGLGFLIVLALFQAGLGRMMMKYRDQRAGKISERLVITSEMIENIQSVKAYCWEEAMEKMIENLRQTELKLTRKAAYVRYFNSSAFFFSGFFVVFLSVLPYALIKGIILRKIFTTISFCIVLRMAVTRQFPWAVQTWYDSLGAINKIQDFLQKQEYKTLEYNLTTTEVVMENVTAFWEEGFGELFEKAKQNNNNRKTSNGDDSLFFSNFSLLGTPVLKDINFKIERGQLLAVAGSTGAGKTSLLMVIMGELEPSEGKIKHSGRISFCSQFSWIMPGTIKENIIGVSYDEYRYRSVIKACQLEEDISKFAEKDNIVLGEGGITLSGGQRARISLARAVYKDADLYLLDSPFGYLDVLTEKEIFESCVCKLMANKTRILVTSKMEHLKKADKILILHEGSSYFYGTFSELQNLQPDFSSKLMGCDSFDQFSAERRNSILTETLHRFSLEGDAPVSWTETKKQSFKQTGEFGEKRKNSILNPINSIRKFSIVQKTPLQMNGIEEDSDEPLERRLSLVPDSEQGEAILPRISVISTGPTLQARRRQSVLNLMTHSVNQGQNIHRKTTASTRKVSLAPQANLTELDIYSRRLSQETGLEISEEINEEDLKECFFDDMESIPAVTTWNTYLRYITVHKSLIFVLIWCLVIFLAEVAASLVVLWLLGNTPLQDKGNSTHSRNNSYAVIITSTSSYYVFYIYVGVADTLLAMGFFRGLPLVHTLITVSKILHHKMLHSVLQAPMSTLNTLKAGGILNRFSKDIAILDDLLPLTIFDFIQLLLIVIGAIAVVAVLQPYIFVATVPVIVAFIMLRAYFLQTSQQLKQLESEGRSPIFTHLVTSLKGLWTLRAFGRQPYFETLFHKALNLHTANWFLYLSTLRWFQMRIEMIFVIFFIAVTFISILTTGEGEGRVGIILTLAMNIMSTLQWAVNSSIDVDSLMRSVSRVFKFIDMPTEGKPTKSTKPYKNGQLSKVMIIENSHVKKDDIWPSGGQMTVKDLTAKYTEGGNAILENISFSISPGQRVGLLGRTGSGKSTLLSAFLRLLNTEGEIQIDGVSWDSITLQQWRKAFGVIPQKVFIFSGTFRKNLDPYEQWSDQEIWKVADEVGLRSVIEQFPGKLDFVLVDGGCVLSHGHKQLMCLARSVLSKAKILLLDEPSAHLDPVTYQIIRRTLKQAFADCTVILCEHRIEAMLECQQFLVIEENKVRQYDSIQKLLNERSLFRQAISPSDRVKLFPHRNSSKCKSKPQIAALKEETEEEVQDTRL", "experiment": "Patch-clamp recording of delF508-CFTR currents in excised inside-out patches of transfected CHO cells", "format": "cell-based", "excerpt": "Patch-clamp is considered the gold standard for assessing directly ion channel function in real time. By attaching a glass microelectrode on the surface of a cell, it is possible to record the currents generated by channels proteins that are present in this tiny “patch” of cell membranes. Since millions of ions pass through a single ion channel pore per second, the resulting microscopic currents from a single channel protein molecule can be detected with modem patch-clamp amplifiers. As ion channels (a conductor in electricity term) are arranged in parallel in the cell membrane, it is also possible to assay a group of ion channels by monitoring macroscopic currents representing the sum of currents from individual channels. Microscopic recordings allow artisans to examine exquisitely the effects of compounds on the Po and kinetic parameters of CFTR channels; whereas macroscopic recordings provide an assay not only to quantify the overall effects of compounds on N×Po×i, but also monitor the stability of the CFTR currents in real time.\nChinese hamster ovary (CHO) cells were grown at 37° C. in Dulbecco's modified Eagle's medium supplemented with 10% fetal bovine serum. Cells were subcultured into 35-mm tissue culture dishes 1 day before transfection. PolyFect transfection reagent (QIAGEN) was used to cotransfect CFTR cDNA and pEGFP-C3 (Takara Bio Inc.), which encodes green fluorescence proteins, into CHO cells. After transfection, cells were incubated at 27° C. for at least 2 days before electrophysiological experiments were performed.\nGlass chips carrying the transfected cells were transferred to a chamber located on the stage of an inverted microscope (IX51; Olympus). Borosilicate capillary glasses were used to make patch pipettes using a two-stage micropipette puller (PP-81, Narishige, Japan). The pipettes were polished with a homemade microforge to a resistance of 2-4 MΩ in the bath solution. Once the seal resistance reached >40 GΩ, membrane patches were excised into an inside-out mode. Subsequently, the pipette was moved to the outlet of a three-barrel perfusion system and perfused with 25 IU PKA and 2 mM ATP until the CFTR current reached a steady state. A patch-clamp amplifier (EPC10, HEKA, Germany) was used to record electrophysiological data at room temperature. The data were filtered online at 100 Hz with an eight-pole Bessel filter (LPF-8; Warner Instruments) and digitized to a computer at a sampling rate of 500 Hz. […] Membrane potential was held at −30 or −50 mV for all recordings.\nDisease-causing mutations (G551D and delF508) were made with PCR-based site-directed mutagenesis using the Pfu Ultra II (Agilent Technologies). […] The cDNA constructs of CFTR (G551D and delF508) were co-transfected with peGFP-C3 (Takara Bio Inc.) encoding the green fluorescent protein into CHO cells using PolyFect transfection reagent (QIAGEN). The transfected cells were transferred into 35 mm tissue culture dishes containing one layer of sterilized glass chips for cells to grow on. The transfected cells were incubated at 27° C. for 2-7 days before electrophysiological experiments were performed.\nAll patch-clamp experiments were carried out in the excised inside-out configuration. Micropipettes made of borosilicate capillary glass were pulled with a two-stage vertical puller (Narishige) and then fire-polished with a homemade microforge to reach a pipet resistance of 2-4 MΩ when the pipettes were filled with a standard inside-out pipet solution that contains: 140 mM N-Methyl-D-glucamine-Cl (NMDG-Cl), 2 mM MgCl2, 5 mM CaCl2) and 10 mM HEPES, adjusted to pH 7.4 with NMDG."}},
  "note": "Values joined by “and” are separate entries in the source; they are usually repeats but may differ in a detail not shown here. Equal entries are not always repeated.",
  "data": [
    {"smiles": "CC(C)(C)c1cc(C(C)(C)C)c(NC(=O)c2c[nH]c3ccccc3c2=O)cc1O", "note": "[VX-770, Ivacaftor, reference compound]", "values": [
      {"measurement": "increase of the Po of G551D-CFTR", "setting": "[1]; Jih et al., PNAS 2013", "result": "8-10 folds"},
      {"measurement": "function of G551D-CFTR relative to wild-type / normal", "setting": "[1]; with Ivacaftor, literature", "result": "< 10% and ~10%"},
      {"measurement": "fold increase of mean delF508-CFTR current", "setting": "[2]; 200 nM VX-770 alone", "result": "~10", "unit": "folds"},
      {"measurement": "rundown of delF508-CFTR current in the presence of the compound", "setting": "[2]; real-time current trace, FIG. 10", "result": "immediately starts to decline"}
    ]}
  ]
}
